{"source": "patent US9781921B2", "about": "“Emulsifiable concentrate formulation” (Huntsman Corporation Australia Pty Limited, priority 2012, dated 2017)", "origin": "cited, not measured here", "tested_on": "mouse", "conditions": "summary of Table 2", "data": [{"smiles": "CC(=O)OCc1ccccc1", "note": "[Benzyl Acetate, benzyl acetate]", "values": [{"measurement": "Toxicity", "value": "relatively low toxicity"}]}]}
